Experimental data reported in US7829665B2 (priority 2005, dated 2010).
Like-named read-outs stand apart in the source and are kept apart here.

How the values were obtained:
[1] = system: HCV sub-genomic replicon in GS4.3 cells (HuH-7 hepatoma cells); assay: Quantitation by ELISA of Neomycin phosphotransferase II (NPTII) in the HCV sub-genomic replicon, GS4.3; assay type: cell-based, hepatitis C virus
Summary of the method: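 HuH-7 GS4.3 cells carrying HCV sub-genomic replicon 1377/NS3-3′, treated 72 h at 37 °C without G418 with 3-fold dilutions from 10 μM to 56 pM (1% DMSO). NPTII in cell lysates measured by direct ELISA with TMB readout at 450 nm. EC50 from 4-parameter fit of percent DMSO-control signal.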

[2] = molecular target: T1, full-length NS3/NS4A-2 (HCV NS3 protease) (Hepatitis C virus genotype 1a, UniProt P27958); assay: NS3-NS4 protease assay / NS3 inhibition assay (RETS1 substrate, fluorescence kinetic read); assay type: biochemical
T1 construct: Recombinant E. coli or Baculovirus full-length NS3 was diluted to 3.33 μM with assay buffer; made in house; host or cells: E. coli or baculovirus (BV) expression system
Summary of the method: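 Full-length NS3 from E. coli (2 nM in assay) or baculovirus (3 nM) was precomplexed with excess NS4A-2 peptide, then preincubated 10 min at room temperature with serially diluted compounds starting at 50 microM. Reaction was started with RETS1 substrate at 8 μM before addition and read kinetically for 30 min (ex 335/em 495 nm). Four-parameter IC50s were converted to Ki by Cheng-Prusoff using Km 2.03 μM (E. coli) or 1.74 μM (BV).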

[3] = Hepatitis C virus, Huh-7, GS4.3 cells, 72 h incubation, NPTII ELISA, read-out: Replicon EC50
[4] = recombinant E. coli or Baculovirus full-length NS3 with NS4A-2, read-out: NS3-NS4 IC50

T1 sequence (P27958 1027-1657): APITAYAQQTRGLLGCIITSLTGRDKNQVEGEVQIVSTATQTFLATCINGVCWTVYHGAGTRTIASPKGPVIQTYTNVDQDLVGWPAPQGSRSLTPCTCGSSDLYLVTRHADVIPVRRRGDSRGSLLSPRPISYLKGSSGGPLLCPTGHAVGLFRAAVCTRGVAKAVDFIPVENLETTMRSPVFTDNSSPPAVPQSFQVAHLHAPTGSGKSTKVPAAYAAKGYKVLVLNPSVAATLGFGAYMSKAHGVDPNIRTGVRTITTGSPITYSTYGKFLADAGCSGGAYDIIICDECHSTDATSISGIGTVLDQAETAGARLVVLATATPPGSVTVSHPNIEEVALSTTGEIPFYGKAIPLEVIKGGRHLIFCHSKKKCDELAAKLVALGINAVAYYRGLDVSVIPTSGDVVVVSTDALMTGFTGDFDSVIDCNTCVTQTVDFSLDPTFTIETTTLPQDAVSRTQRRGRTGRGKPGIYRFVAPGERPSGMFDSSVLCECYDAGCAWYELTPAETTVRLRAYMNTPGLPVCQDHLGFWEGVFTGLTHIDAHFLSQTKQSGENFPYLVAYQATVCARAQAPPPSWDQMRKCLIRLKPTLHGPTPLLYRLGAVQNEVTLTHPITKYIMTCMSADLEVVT

CC(C)(C)OC(=O)N[C@H]1CCCCC/C=C\[C@@H]2C[C@@]2(C(=O)NS(=O)(=O)C2CC2)NC(=O)[C@@H]2C[C@@H](OC(=O)N3CCc4cccc(F)c4C3)CN2C1=O [Compound 257]
EC50 [1, 3]: < 100 nM | IC50 [2, 4]: < 100 nM

CC(C)(C)OC(=O)N[C@H]1CCCCC/C=C\[C@@H]2C[C@@]2(C(=O)NC(=O)N2CCOCC2)NC(=O)[C@@H]2C[C@@H](OC(=O)N3Cc4cccc(F)c4C3)CN2C1=O [Compound 234]
EC50 [1, 3]: < 100 nM | IC50 [2, 4]: < 100 nM

O=C(CCO)N[C@H]1CCCCC/C=C\[C@@H]2C[C@@]2(C(=O)NS(=O)(=O)C2CC2)NC(=O)[C@@H]2C[C@@H](OC(=O)N3Cc4cccc(F)c4C3)CN2C1=O [Compound 251]
EC50 [1, 3]: < 10000 nM | IC50 [2, 4]: < 100 nM

C[C@H](NC(=O)O[C@@H]1C[C@H]2C(=O)N[C@]3(C(=O)NS(=O)(=O)C4CC4)C[C@H]3/C=C\CCCCC[C@H](NC(=O)OC(C)(C)C)C(=O)N2C1)c1ccc(F)cn1 [Compound 149]
EC50 [1, 3]: > 10000 nM | IC50 [2, 4]: < 100 nM

CC(C)(C)CCN[C@H]1CCCCC/C=C\[C@@H]2C[C@@]2(C(=O)NS(=O)(=O)C2CC2)NC(=O)[C@@H]2C[C@@H](OC(=O)N3Cc4cccc(F)c4C3)CN2C1=O [Compound 912]
EC50 [1, 3]: < 100 nM | IC50 [2, 4]: < 100 nM

O=C(N[C@H]1CCCCC/C=C\[C@@H]2C[C@@]2(C(=O)NCC2CC2)NC(=O)[C@@H]2C[C@@H](OC(=O)N3CCc4ccccc4C3)CN2C1=O)OC1CCCC1 [Compound 644]
EC50 [1, 3]: < 1000 nM | IC50 [2, 4]: < 100 nM

COC(=O)c1cccc(CNC(=O)[C@@]23C[C@H]2/C=C\CCCCC[C@H](NC(=O)OC(C)(C)C)C(=O)N2C[C@H](OC(=O)N4Cc5cccc(F)c5C4)C[C@H]2C(=O)N3)c1 [Compound 602]
EC50 [1, 3]: < 1000 nM | IC50 [2, 4]: < 1000 nM

CN(C)S(=O)(=O)NC(=O)[C@@]12C[C@H]1CCCCC(F)(F)CC[C@H](NC(=O)OC(C)(C)C)C(=O)N1C[C@H](OC(=O)N3Cc4cccc(F)c4C3)C[C@H]1C(=O)N2 [Compound 1016]
EC50 [1, 3]: < 100 nM | IC50 [2, 4]: < 100 nM

CC(C)(C)OC(=O)N[C@H]1CCCCC/C=C\[C@@H]2C[C@@]2(C(=O)NCC(O)(C(F)(F)F)C(F)(F)F)NC(=O)[C@@H]2C[C@@H](OC(=O)N3Cc4cccc(F)c4C3)CN2C1=O [Compound 613]
EC50 [1, 3]: < 1000 nM | IC50 [2, 4]: < 1000 nM

(1S,4R,6S,14S) tert-butyl 4-Cyclopropanesulfonylaminocarbonyl-2,15-dioxo-3,16-diaza-tricyclo[14.3.0.0^4,6]nonadec-7-ene-14-yl carbamate [Compound 2137]
EC50 ([1]; Table 26, read-out: EC50): > 10000 nM | IC50 [2, 4]: > 10000 nM

CC(C)C(O)C(=O)N[C@H]1CCCCC/C=C\[C@@H]2C[C@@]2(C(=O)NS(=O)(=O)C2CC2)NC(=O)[C@@H]2C[C@@H](OC(=O)N3Cc4cccc(F)c4C3)CN2C1=O (stereo partly drawn) [Compound 250]
EC50 [1, 3]: < 1000 nM | IC50 [2, 4]: < 100 nM

CC(C)(C)OC(=O)N[C@H]1CCCCC/C=C\[C@@H]2C[C@@]2(C(=O)NS(=O)(=O)C2(Cc3ccccc3)CC2)NC(=O)[C@@H]2C[C@@H](OC(=O)N3Cc4cccc(Cl)c4C3)CN2C1=O [Compound 161]
EC50 [1, 3]: < 100 nM | IC50 [2, 4]: < 100 nM

CC(CO)(CO)C(=O)N[C@H]1CCCCC/C=C\[C@@H]2C[C@@]2(C(=O)NS(=O)(=O)C2CC2)NC(=O)[C@@H]2C[C@@H](OC(=O)N3Cc4cccc(F)c4C3)CN2C1=O [Compound 253]
EC50 [1, 3]: < 10000 nM | IC50 [2, 4]: < 100 nM

CC(C)(O)CC(=O)N[C@H]1CCCCC/C=C\[C@@H]2C[C@@]2(C(=O)NS(=O)(=O)C2CC2)NC(=O)[C@@H]2C[C@@H](OC(=O)N3Cc4cccc(F)c4C3)CN2C1=O [Compound 252]
EC50 [1, 3]: < 10000 nM | IC50 [2, 4]: < 100 nM

CC(C)(C)OC(=O)N[C@H]1CCCCC/C=C\[C@@H]2C[C@@]2(C(=O)NC2CC2)NC(=O)[C@@H]2C[C@@H](OC(=O)N3Cc4cccc(F)c4C3)CN2C1=O [Compound 609]
EC50 [1, 3]: < 1000 nM | IC50 [2, 4]: < 100 nM

CN(C)CCOc1ccc2c(c1)CN(C(=O)O[C@@H]1C[C@H]3C(=O)N[C@]4(C(=O)O)C[C@H]4/C=C\CCCCC[C@H](NC(=O)OC4CCCC4)C(=O)N3C1)C2 [Compound 133]
EC50 [1, 3]: < 10000 nM | IC50 [2, 4]: < 100 nM

CC(C)(C)OC(=O)N[C@H]1CCCOCCC[C@@H]2C[C@@]2(C(=O)NS(=O)(=O)C2CC2)NC(=O)[C@@H]2C[C@@H](OC(=O)N3Cc4cccc(F)c4C3)CN2C1=O [Compound 1023, (2R,6S,13aR,14aR,16aS)-6-(tert-butoxycarbonylamino)-14a-(cyclopropylsulfonylcarbamoyl)-5,16-dioxohexadecahydro-1H-cyclopropa(e)pyrrolo[2,1-i][1,7,10]oxadiazacyclopentadecin-2-yl 4-fluoroisoindoline-2-carboxylate]
EC50 [1, 3]: < 1000 nM | IC50 [2]: < 100 nM

CN(C)C(=O)NC(=O)[C@@]12C[C@H]1/C=C\CCCCC[C@H](NC(=O)OC(C)(C)C)C(=O)N1C[C@H](OC(=O)N3Cc4cccc(F)c4C3)C[C@H]1C(=O)N2 [Compound 235]
EC50 [1, 3]: < 100 nM | IC50 [2, 4]: < 100 nM

CC(C)(C)OC(=O)N[C@H]1CCCCC/C=C\[C@@H]2C[C@@]2(C(=O)NC#N)NC(=O)C2C[C@@H](OC(=O)N3Cc4cccc(Cl)c4C3)CN2C1=O (stereo partly drawn) [Compound 641]
EC50 [1, 3]: < 10000 nM | IC50 [2, 4]: < 100 nM

O=C1N[C@]2(C(=O)NS(=O)(=O)C3CC3)C[C@H]2/C=C\CCCCC[C@H](NCC2CCCO2)C(=O)N2C[C@H](OC(=O)N3Cc4cccc(F)c4C3)C[C@@H]12 (stereo partly drawn) [Compound 916]
EC50 [1, 3]: < 1000 nM | IC50 [2, 4]: < 100 nM

N[C@H]1CCCCC/C=C\[C@@H]2C[C@@]2(C(=O)NS(=O)(=O)NC2CCCC2)NC(=O)[C@@H]2C[C@@H](OC(=O)N3Cc4cccc(Cl)c4C3)CN2C1=O [Compound 221]
EC50 [1, 3]: < 10000 nM | IC50 [2, 4]: < 100 nM

O=C(CCC(F)(F)F)N[C@H]1CCCCC/C=C\[C@@H]2C[C@@]2(C(=O)O)NC(=O)[C@@H]2C[C@@H](OC(=O)N3Cc4cccc(F)c4C3)CN2C1=O [Compound 135]
EC50 [1, 3]: < 10000 nM | IC50 [2, 4]: < 100 nM

O=C1N[C@]2(C(=O)NS(=O)(=O)C3CC3)C[C@H]2/C=C\CCCCC[C@H](N(CC2CC2)CC2CC2)C(=O)N2C[C@H](OC(=O)N3Cc4cccc(F)c4C3)C[C@@H]12 [Compound 911]
EC50 [1, 3]: < 10000 nM | IC50 [2, 4]: < 1000 nM

O=C(N[C@H]1CCCCC/C=C\[C@@H]2C[C@@]2(C(=O)NS(=O)(=O)N2CCC(F)(F)C2)NC(=O)C2C[C@@H](OC(=O)N3Cc4ccccc4C3)CN2C1=O)OC1CCCC1 (stereo partly drawn) [Compound 227]
EC50 [1, 3]: < 100 nM | IC50 [2, 4]: < 100 nM

Cc1cccc(C)c1CN[C@H]1CCCCC/C=C\[C@@H]2C[C@@]2(C(=O)NS(=O)(=O)C2CC2)NC(=O)[C@@H]2C[C@@H](OC(=O)N3Cc4cccc(F)c4C3)CN2C1=O [Compound 918]
EC50 [1, 3]: < 1000 nM | IC50 [2, 4]: < 100 nM

Cc1ccccc1S(=O)(=O)NC(=O)[C@@]12C[C@H]1/C=C\CCCCC[C@H](N)C(=O)N1C[C@H](OC(=O)N3Cc4cccc(F)c4C3)C[C@H]1C(=O)N2 [Compound 159]
EC50 [1, 3]: < 1000 nM | IC50 [2]: < 100 nM

CC(C)(C)OC(=O)N[C@H]1CCCCC/C=C\[C@@H]2C[C@@]2(C(=O)NC(=O)C2CC2)NC(=O)[C@@H]2C[C@@H](OC(=O)N3Cc4ccccc4C3)CN2C1=O [Compound 701]
EC50 [1, 3]: < 100 nM | IC50 [2, 4]: < 100 nM

O=C1N[C@]2(C(=O)O)C[C@H]2/C=C\CCCCC[C@H](Nc2c(N3CCC3)c(=O)c2=O)C(=O)N2C[C@H](OC(=O)N3Cc4cccc(F)c4C3)C[C@@H]12 [Compound 238]
EC50 [1, 3]: < 10000 nM | IC50 [2, 4]: < 100 nM

NC(=S)N[C@H]1CCCCC/C=C\[C@@H]2C[C@@]2(C(=O)NS(=O)(=O)C2CC2)NC(=O)[C@@H]2C[C@@H](OC(=O)N3Cc4cccc(F)c4C3)CN2C1=O [Compound 923]
EC50 [1, 3]: < 1000 nM | IC50 [2, 4]: < 100 nM

CC(C)(C)OC(=O)N[C@H]1CCOCC/C=C\[C@@H]2C[C@@]2(C(=O)O)NC(=O)[C@@H]2C[C@@H](OC(=O)N3Cc4cccc(F)c4C3)CN2C1=O [Compound 1026]
EC50 [1, 3]: < 10000 nM | IC50 [2, 4]: < 100 nM

CCCNC(=O)[C@@]12C[C@H]1/C=C\CCCCC[C@H](NCc1ccc(F)c(F)c1)C(=O)N1C[C@H](OC(=O)N3Cc4cccc(F)c4C3)C[C@H]1C(=O)N2 [Compound 625]
EC50 [1, 3]: < 10000 nM | IC50 [2, 4]: < 10000 nM

CC(C)(C)OC(=O)N[C@H]1CCCCC/C=C\[C@@H]2C[C@@]2(C(=O)NS(=O)(=O)C2CC2)NC(=O)[C@@H]2C[C@@H](OC(=O)N3CCc4c(F)ccc(Cl)c4C3)CN2C1=O [Compound 259]
EC50 [1, 3]: < 100 nM | IC50 [2, 4]: < 100 nM

O=C(N[C@H]1CCCCC/C=C\[C@@H]2C[C@@]2(C(=O)O)NC(=O)[C@@H]2C[C@@H](OC(=O)N3Cc4cccc(F)c4C3)CN2C1=O)OC1CCCC1 [Compound 116]
EC50 [1, 3]: < 10000 nM | IC50 [2, 4]: < 100 nM

CC(C)(C)OC(=O)N[C@H]1CCC(F)(F)CC/C=C\[C@@H]2C[C@@]2(C(=O)NS(=O)(=O)C2CC2)NC(=O)[C@@H]2C[C@@H](OC(=O)N3Cc4ccccc4C3)CN2C1=O [Compound 1009]
EC50 [1, 3]: < 100 nM | IC50 [2, 4]: < 100 nM

O=C1N[C@]2(C(=O)NS(=O)(=O)C3CC3)C[C@H]2/C=C\CCCCC[C@H](NC(=O)C2(O)CC2)C(=O)N2C[C@H](OC(=O)N3Cc4cccc(F)c4C3)C[C@@H]12 [Compound 249]
EC50 [1, 3]: < 1000 nM | IC50 [2, 4]: < 100 nM

CC(C)(C)c1csc(N[C@H]2CCCCC/C=C\[C@@H]3C[C@@]3(C(=O)NS(=O)(=O)C3CC3)NC(=O)[C@@H]3C[C@@H](OC(=O)N4Cc5cccc(F)c5C4)CN3C2=O)n1 [Compound 925]
EC50 [1, 3]: < 100 nM | IC50 [2, 4]: < 100 nM
